Assay results as given in US9877945B2 (priority 2013, dated 2018).
Read-outs that look alike come from different tables or passages of the source.

System: Clostridium perfringens strain 56
Details: for Number of birds with macroscopic necrotic enteritis lesions: lesion score 2 or more = positive; for Birds with macroscopic necrotic enteritis lesions, Total (%) (positive chicken in total) / Number of birds with macroscopic necrotic enteritis lesions, total: total of days 21-23
[1] = day 21, product on silica carrier in feed 5 / 2.5 / 2 kg/ton in weeks 1 / 2 / 3 (low conc for monobutyrate)
[2] = day 22, product on silica carrier in feed 5 / 2.5 / 2 kg/ton in weeks 1 / 2 / 3 (low conc for monobutyrate)
[3] = day 23, product on silica carrier in feed 5 / 2.5 / 2 kg/ton in weeks 1 / 2 / 3 (low conc for monobutyrate)
[4] = product on silica carrier in feed 5 / 2.5 / 2 kg/ton in weeks 1 / 2 / 3 (low conc for monobutyrate)
[5] = product on silica carrier in feed at high conc 7.5 / 6 / 5.5 kg/ton in weeks 1 / 2 / 3

CCCC(=O)OCC(O)CO (centres unmarked) [glyceryl monobutyrate]
Number of birds with macroscopic necrotic enteritis lesions [1]: 5/9
Number of birds with macroscopic necrotic enteritis lesions (day 21, product on silica carrier in feed at high conc 7.5 / 6 / 5.5 kg/ton in weeks 1 / 2 / 3): 4/9
Number of birds with macroscopic necrotic enteritis lesions [2]: 3/9
Number of birds with macroscopic necrotic enteritis lesions (day 22, product on silica carrier in feed at high conc 7.5 / 6 / 5.5 kg/ton in weeks 1 / 2 / 3): 5/9
Number of birds with macroscopic necrotic enteritis lesions [3]: 2/10
Number of birds with macroscopic necrotic enteritis lesions (day 23, product on silica carrier in feed at high conc 7.5 / 6 / 5.5 kg/ton in weeks 1 / 2 / 3): 3/8
chickens died during the trial (pen 3: higher concentration in feed (7.5 / 6 / 5.5 kg/ton)): 2
Birds with macroscopic necrotic enteritis lesions, Total (%) (positive chicken in total) [4]: 36%
Number of birds with macroscopic necrotic enteritis lesions, total [4]: 10/28
Birds with macroscopic necrotic enteritis lesions, Total (%) (positive chicken in total) [5]: 46%
Number of birds with macroscopic necrotic enteritis lesions, total [5]: 12/26

CCCC(=O)OCC(COC(=O)CCC)OC(=O)CCC [glyceryl tributyrate]
Result in preventing Clostridium perfringens-induced necrotic enteritis compared with glyceryl monobutyrate at either concentration (FIG. 1) (added to the feed, P value <0.05 taken as significant): significantly better result
Number of birds with macroscopic necrotic enteritis lesions [1]: 3/9
Number of birds with macroscopic necrotic enteritis lesions [2]: 2/9
Number of birds with macroscopic necrotic enteritis lesions [3]: 2/11
Birds with macroscopic necrotic enteritis lesions, Total (%) (positive chicken in total) [4]: 24%
Number of birds with macroscopic necrotic enteritis lesions, total [4]: 7/29
